Results on one compound are retold here after US7994127B2, “Treatment of rett syndrome” (Massachusetts Institute of Technology, priority 2007, dated 2011).

Data set [1] concerns visual cortex of adult MeCP2+/− mice. The data set is described as follows: Ocular dominance plasticity after monocular deprivation, optical imaging of intrinsic signals. Type of data set: in vivo, mouse.
For data set [2] the following is noted: in vivo; cited from earlier work.

Consider `NCC(=O)N1CCC[C@H]1C(=O)N[C@@H](CCC(=O)O)C(=O)O` [(1-3)IGF-1, glycyl-L-prolyl-L-glutamic acid], for which the “maturation of cortical circuitry during ocular dominance plasticity (FIG. 9B)” value in data set [1] ((1-3)IGF-1 as in Example 1) is “promoted to similar degrees”. Also, in data set [1] (female MeCP2+/− mice P60 or more, MD 4 days, 0.02 mg/g body weight IP daily during MD), the “ocular dominance plasticity (ODI shift after MD, FIG. 3C-D)” value is “prevented the OD plasticity”. In addition, in data set [2], the “crossing the blood-brain barrier” value is recorded as “capable of crossing the blood-brain barrier”.
